Assay results published in ChEMBL document CHEMBL3217740, “Novel selective inhibitors of neutral endopeptidase: discovery by screening and hit-to-lead optimisation” (Medchemcomm, 2012).
≈ marks a conversion by molar mass, not a printed value.

Experiments:
[1] = Solubility of the compound in PBS buffer at pH 7.4 after 24 hrs by LC-MS/MS analysis; format: physicochemical
Neprilysin = Neprilysin (Homo sapiens, UniProt P08473); test: Inhibition of human NEP using N-Dansyl-D-Ala-Gly-p-nitro-Phe-Gly as substrate preincubated for 10 mins followed by substrate addition measured after 2 hrs by spectrophotometric analysis
[2] = Half life in rat plasma at 10 uM by LC-MS/MS; format: ADME, cell-free
[3] = Stability of the compound assessed as GSH adduct formation by LC-MS analysis; format: ADME
[4] = molecular target: Angiotensin-converting enzyme (Homo sapiens, UniProt P12821); test: Inhibition of human ACE-1 using Abz-Gly-p-nitro-Phe-Pro-OH as substrate preincubated for 10 mins followed by substrate addition measured after 17 hrs by spectrophotometric analysis
[5] = 1-octanol-PBS distribution coefficient, Log D of the compound at pH 7.4 after 2 hrs by LC-MS analysis; format: physicochemical
[6] = molecular target: T1, Endothelin-converting enzyme 1 (Homo sapiens, UniProt P42892); test: Inhibition of ECE-1 in human NCO cells using Mca-Arg-Pro-Pro-GlyPhe-Ser-Ala-DpaOH as substrate after 45 mins by fluorescence assay; format: cell-based
T1 sequence (P42892 whole entry): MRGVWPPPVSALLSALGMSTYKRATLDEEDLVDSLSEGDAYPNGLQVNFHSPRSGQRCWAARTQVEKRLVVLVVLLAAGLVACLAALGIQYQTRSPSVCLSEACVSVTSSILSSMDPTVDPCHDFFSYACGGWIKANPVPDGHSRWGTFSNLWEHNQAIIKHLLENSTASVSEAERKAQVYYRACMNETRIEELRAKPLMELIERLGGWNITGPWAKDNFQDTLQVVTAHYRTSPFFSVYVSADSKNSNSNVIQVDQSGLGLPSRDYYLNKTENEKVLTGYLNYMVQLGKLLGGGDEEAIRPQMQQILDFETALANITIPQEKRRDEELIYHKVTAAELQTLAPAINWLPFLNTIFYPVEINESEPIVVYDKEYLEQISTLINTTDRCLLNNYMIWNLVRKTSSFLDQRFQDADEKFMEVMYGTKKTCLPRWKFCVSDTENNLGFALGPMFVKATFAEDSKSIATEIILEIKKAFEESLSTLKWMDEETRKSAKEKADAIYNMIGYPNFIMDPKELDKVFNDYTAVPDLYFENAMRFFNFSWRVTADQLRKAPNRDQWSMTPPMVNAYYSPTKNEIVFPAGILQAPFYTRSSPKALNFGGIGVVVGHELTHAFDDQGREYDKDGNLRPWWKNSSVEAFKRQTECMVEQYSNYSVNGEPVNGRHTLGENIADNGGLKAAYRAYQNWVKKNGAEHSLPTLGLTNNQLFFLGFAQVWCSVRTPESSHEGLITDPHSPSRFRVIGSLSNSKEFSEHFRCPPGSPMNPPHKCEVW

Sequence of Neprilysin (P08473 whole entry): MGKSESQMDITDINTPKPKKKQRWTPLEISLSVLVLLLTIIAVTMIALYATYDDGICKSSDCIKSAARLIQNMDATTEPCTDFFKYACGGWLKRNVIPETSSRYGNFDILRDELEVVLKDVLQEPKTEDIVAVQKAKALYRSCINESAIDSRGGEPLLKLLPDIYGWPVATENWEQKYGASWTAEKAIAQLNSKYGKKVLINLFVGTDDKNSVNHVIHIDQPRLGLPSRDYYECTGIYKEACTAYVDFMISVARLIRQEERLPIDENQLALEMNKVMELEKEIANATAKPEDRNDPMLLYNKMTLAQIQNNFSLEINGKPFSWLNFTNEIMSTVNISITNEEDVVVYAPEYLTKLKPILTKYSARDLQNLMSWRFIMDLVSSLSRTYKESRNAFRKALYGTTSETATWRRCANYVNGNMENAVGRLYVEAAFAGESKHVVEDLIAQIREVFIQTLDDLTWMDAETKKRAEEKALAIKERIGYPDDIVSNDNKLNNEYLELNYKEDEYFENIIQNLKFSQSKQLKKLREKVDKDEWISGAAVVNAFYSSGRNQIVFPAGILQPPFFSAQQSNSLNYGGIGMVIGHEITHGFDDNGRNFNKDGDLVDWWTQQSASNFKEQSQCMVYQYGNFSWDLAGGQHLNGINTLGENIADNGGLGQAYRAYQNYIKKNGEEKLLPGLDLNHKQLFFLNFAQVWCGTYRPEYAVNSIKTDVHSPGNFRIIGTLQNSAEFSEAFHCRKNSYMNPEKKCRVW
Sequence of Angiotensin-converting enzyme (P12821 whole entry): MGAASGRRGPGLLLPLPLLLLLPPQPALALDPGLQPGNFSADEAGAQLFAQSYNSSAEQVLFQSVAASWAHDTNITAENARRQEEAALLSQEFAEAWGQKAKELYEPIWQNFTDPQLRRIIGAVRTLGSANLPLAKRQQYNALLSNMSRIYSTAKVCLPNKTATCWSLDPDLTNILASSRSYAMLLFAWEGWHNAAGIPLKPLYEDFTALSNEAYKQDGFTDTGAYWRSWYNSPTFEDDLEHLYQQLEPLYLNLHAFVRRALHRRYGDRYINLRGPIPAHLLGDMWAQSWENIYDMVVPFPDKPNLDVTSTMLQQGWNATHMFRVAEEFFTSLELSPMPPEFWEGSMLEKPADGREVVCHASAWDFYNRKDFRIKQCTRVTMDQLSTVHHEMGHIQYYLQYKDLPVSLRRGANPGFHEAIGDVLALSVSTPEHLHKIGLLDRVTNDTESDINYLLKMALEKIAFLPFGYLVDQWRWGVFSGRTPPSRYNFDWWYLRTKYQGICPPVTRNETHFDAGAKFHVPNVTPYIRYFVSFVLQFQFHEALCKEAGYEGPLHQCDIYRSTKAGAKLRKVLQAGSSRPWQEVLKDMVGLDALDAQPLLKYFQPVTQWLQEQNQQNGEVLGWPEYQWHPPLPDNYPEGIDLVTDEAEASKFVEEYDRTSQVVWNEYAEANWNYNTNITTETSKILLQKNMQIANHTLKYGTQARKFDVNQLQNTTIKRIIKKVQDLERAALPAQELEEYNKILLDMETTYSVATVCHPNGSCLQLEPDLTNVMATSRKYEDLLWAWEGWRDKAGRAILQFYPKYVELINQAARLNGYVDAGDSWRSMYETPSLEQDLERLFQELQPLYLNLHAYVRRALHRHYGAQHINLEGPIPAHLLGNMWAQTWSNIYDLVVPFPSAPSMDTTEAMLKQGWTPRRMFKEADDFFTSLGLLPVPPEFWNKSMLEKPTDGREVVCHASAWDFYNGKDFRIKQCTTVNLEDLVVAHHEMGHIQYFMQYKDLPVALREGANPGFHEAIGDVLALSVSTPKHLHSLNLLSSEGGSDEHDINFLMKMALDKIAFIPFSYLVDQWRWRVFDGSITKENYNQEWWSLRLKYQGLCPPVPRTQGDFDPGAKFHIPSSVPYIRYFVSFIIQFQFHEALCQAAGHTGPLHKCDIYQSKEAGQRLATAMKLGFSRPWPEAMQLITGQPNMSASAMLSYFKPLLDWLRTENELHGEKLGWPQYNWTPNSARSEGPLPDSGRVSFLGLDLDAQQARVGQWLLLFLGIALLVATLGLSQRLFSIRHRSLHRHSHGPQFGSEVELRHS

| Compound | solubility at 24 h [1] | IC50 (Neprilysin) | half-life at 10 µM [2] | Stability [3] | IC50 [4] | logD at 2 h [5] | IC50 [6] |
| --- | --- | --- | --- | --- | --- | --- | --- |
| COC(=O)[C@H](CC(=O)N[C@@H](CO)C(=O)O)CC(C)C | 160 µM (≈ 44 µg/mL) | 79.4 µM | 6 min | – | – | – | – |
| COC(=O)[C@@H](CC(=O)N[C@@H](CO)C(=O)O)CC(C)C | – | > 1000 µM | – | – | – | – | – |
| COC(=O)[C@@H](CC(=O)N[C@H](CO)C(=O)O)CC(C)C | – | > 1000 µM | – | – | – | – | – |
| COC(=O)[C@H](CC(C)C)NC(=O)N[C@@H](CO)C(=O)O | – | > 1000 µM | – | – | – | – | – |
| COC(=O)C(CC(C)C)C(=O)N[C@@H](CO)C(=O)O (mixture of isomers) | – | 50.1 µM | – | – | – | – | – |
| COC(=O)C(CC(C)C)C(=O)N[C@H](CO)C(=O)O (mixture of isomers) | – | > 1000 µM | – | – | – | – | – |
| COC(=O)[C@H](CC(C)C)NC(=O)N[C@H](CO)C(=O)O (single isomer, unassigned) | – | > 1000 µM | – | – | – | – | – |

Other lines, results leading:

| solubility at 24 h [1] | IC50 (Neprilysin) | half-life at 10 µM [2] | Stability [3] | IC50 [4] | logD at 2 h [5] | IC50 [6] | Compound |
| --- | --- | --- | --- | --- | --- | --- | --- |
| – | > 1000 µM | – | – | – | – | – | COC(=O)[C@H](CC(=O)N[C@H](CO)C(=O)O)CC(C)C |
| – | 2.51 µM | – | Unstable | – | – | – | CC(C)C[C@H]1CC(=O)N([C@@H](CO)C(=O)O)C1=O |
| > 200 µM | 0.794 µM | > 1440 min | – | > 31.6 µM | -3.4 | > 31.6 µM | CC(C)C[C@@H](CC(=O)N[C@@H](CO)C(=O)O)C(=O)O |
| > 200 µM | > 1000 µM | > 1440 min | – | > 31.6 µM | -3.8 | > 31.6 µM | CC(C)C[C@H](CC(=O)N[C@@H](CO)C(=O)O)C(=O)O |
| > 200 µM | 0.0631 µM | > 1440 min | Stable | > 31.6 µM | -3.7 | > 31.6 µM | CC(C)C[C@@H](CC(=O)O)C(=O)N[C@@H](CO)C(=O)O |
| > 200 µM | 6.31 µM | > 1440 min | – | > 31.6 µM | -3.8 | > 31.6 µM | CC(C)C[C@H](CC(=O)O)C(=O)N[C@@H](CO)C(=O)O |
